`CC1=NNC(=O)CC1c1ccc(OC2CCN(C(=O)OC(C)(C)C)CC2)cc1` (stereo not given) gave a melting point of 165 to 167 °C.
With `C=CCC(NC(=O)c1ccc(OC)cc1)C(=O)OCC` (stereo not given) the melting point was 76 to 78 °C.
With `Cc1[nH]c2ccc(O)cc2c1C(=O)NC1CCN(CCc2ccccc2)CC1` the melting point was 232 to 236 °C.
With `CS(=O)(=O)NCc1cc(Br)cc2[nH]c(=O)c(=O)[nH]c12` the melting point was > 300 °C.
Compound `CC(=O)c1cnn2c(-c3cccc(C(F)(F)F)c3)ccnc12` has a melting point of 127 to 130 °C.
With `Cc1ccc(N2CCOCC2)c(NC(N)=S)c1` the melting point was 181 to 182 °C.
Work on `O=C(O)CCNCCn1nc(-c2c(-c3ccccc3)nn3ccccc23)ccc1=O` yielded a melting point of 230 to 232 °C.
For `Cc1c(Cl)c(C(C)(C)C)c(Cl)c(C)c1S(=O)(=O)Cl`, the melting point was 148 °C.
Compound `O=c1[nH]c(=O)n(C2OC(CO)CC2O)cc1F` (stereo not given) has a melting point of 169 to 171 °C.
With `O=c1ncc(Cl)cn1CC=CCl` the melting point was 102 to 104 °C.
Compound `Cc1nnc2ccc(-c3ccccc3F)nn12` has a melting point of 147 to 149 °C.
For `CCCCCCCCCC(=O)N[C@@H](C)C(=O)N[C@@H](Cc1ccccc1)C(=O)OC`, the melting point was 120 to 122 °C.
`O=C(O)[C@@]1(O)C[C@@H](O)[C@H](O)C2=C1CC(Cc1ccccc1)(Cc1ccccc1)S2` gave a melting point of 209 to 212 °C.
For `COC(=O)c1ccccc1C=Cc1ccc(Br)cc1`, the melting point was 104 to 106 °C.
In the case of `CC1CCCC(C)N1C(=O)CSC#N` (stereo not given), the melting point was 81 to 82 °C.
Compound `COc1ccc2cc(Nc3ccc(OCc4ccccc4)cc3)ccc2c1` has a melting point of 155 to 157 °C.
`COc1cccc2c(=O)c(CSC)cn(C)c12` showed a melting point of 143 to 145 °C.
Work on `Cc1c(-c2ccncc2)sc(-c2ccncc2)c1C(F)F` yielded a melting point of 132 to 133 °C.
Work on `CCOC(=O)CC[C@H](NC(=O)c1ccc(C(=Cc2cnc3nc(NC(=O)C(C)(C)C)nc(O)c3c2)COC2CCCCO2)cc1)C(=O)OCC` (stereo not given in full) yielded a melting point of 273 to 275 °C.
Work on `O=C(Cn1ccnc1)c1ccc(-c2ccncc2)cc1` yielded a melting point of 144 to 146 °C.
With `COC(=O)C#CC(=O)c1ccccc1C` the melting point was 43 to 45 °C.
Work on `Cc1nn(-c2ccccn2)c2[nH]c3ccccc3c(=S)c12` yielded a melting point of 252 to 253 °C.
Work on `Cc1cccc(-c2nccc3nc(N)nn23)c1` yielded a melting point of 125 to 126 °C.
Compound `Cn1nc(N2c3cccc(F)c3CC2C(=O)N2CCCCCC2)ccc1=O` (stereo not given) has a melting point of 211 to 213 °C.
For `CCOC(=O)c1cn(CC(I)=C(I)I)c(Cl)c1Cl`, the melting point was 117 to 119 °C.
`CC1(C)Oc2ccncc2C2OC21` (stereo not given) showed a melting point of 208 to 210 °C.
In the case of `CCOC(=O)C1=C(C)NC(c2c(F)cccc2F)=NC1c1ccc(F)cc1Cl` (stereo not given), the melting point was 163 to 165 °C.
Work on `CS(=O)(=O)c1ccc(-c2ncccc2C(=O)c2cccc(F)c2)cc1` yielded a melting point of 157 to 159 °C.
With `O=C(Nc1ccc2ccc(-c3ccccc3)nc2n1)c1cccc(Br)c1` the melting point was 175 °C.
Compound `Cc1nn(CC(=O)c2ccc(Cl)cc2)c(=O)n1-c1ccc(N2CCN(c3ccc(O)cc3)CC2)cc1` has a melting point of 252 °C.
With `CCCc1c[nH]c([C@@H]2Cc3ccccc3N2C(C)=O)n1` the melting point was 174 to 175 °C.
`O=c1c2cc(F)c(N3CCCC3)cc2n(CCF)c(=O)n1O` gave a melting point of 228 to 230 °C.
With `CCN(C)C(=S)Nc1cc(Cl)c(OCCC[Si](C)(C)C)cc1C` the melting point was 71 to 72 °C.
In the case of `Cc1ccc(S(=O)(=O)N(C)CC(=O)N2CCC[C@H]2C=O)cc1`, the melting point was 111 °C.
`CCOC(=O)C(=O)Nc1ccc2c(c1)CC(=O)N2` showed a melting point of 235 to 237 °C.
Compound `CC(C)(C)Nc1nc(C(F)(F)F)c(C(=O)Cl)o1` has a melting point of 52 to 60 °C.
`CC(C)COc1ccc(-n2ncc(C(=O)O)c2Cl)cc1C#N` showed a melting point of 216 to 218 °C.
Compound `CCOC(=O)C1=C(C)NC(COCc2cccnc2)=C(C(=O)OCC)C1c1ccccc1[N+](=O)[O-]` (stereo not given) has a melting point of 133 to 135 °C.
Compound `Nc1nc(N)c(C(=O)n2ccnc2)nc1Cl` has a melting point of 232 to 234 °C.
`ClC1c2ccccc2CSc2ccccc21` (stereo not given) gave a melting point of 79 to 82 °C.
In the case of `NC(=O)N(O)CCNC(=O)c1cccn1Cc1ccc(Cl)cc1`, the melting point was 158 to 160 °C.
Work on `COc1ccc(C(=O)Nc2ccccc2)cc1NCc1cc(Cl)cc(Cl)c1` yielded a melting point of 164 to 165 °C.
With `CC(=O)Nc1ccc(Nc2c([N+](=O)[O-])cc(C(=O)O)cc2S(=O)(=O)Nc2ccccc2NC(C)=O)cc1` the melting point was 252 to 253 °C.
With `CNc1nn(C)c2nc3n(c(=O)c12)CCS3` the melting point was 255 to 256 °C.
With `CCOC(=O)c1cnc(Cl)c(N)c1NC` the melting point was 50 to 52 °C.
For `C#CC1(C)OC(=O)Nc2ccc(-c3cccc(Cl)c3)cc21` (stereo not given), the melting point was 185 to 186 °C.
`COC(CN(c1nc2ccccc2o1)[C@H]1c2cc(C#N)ccc2OC(C)(C)[C@@H]1O)OC` showed a melting point of 66 °C.
In the case of `CS(=O)(=O)c1ccc(-c2cc(CO[N+](=O)[O-])nn2C2CCCCCC2)cc1`, the melting point was 119 to 120 °C.
`CC(C)(C)[N+]([O-])=Cc1ccc(S(N)(=O)=O)cc1` gave a melting point of 219 °C.
For `COc1ccc2c(c1OC)CCC(NC(=O)CCCCC(=O)NCCc1ccccc1)C2` (stereo not given), the melting point was 191 to 193 °C.
`CCCCCCCCCCC(=O)C(=O)CCCCCCCCCC` gave a melting point of 68.5 to 69 °C.
`CCN1C=C(C(=O)O)C(=O)CC1c1cccc(Cl)c1` (stereo not given) showed a melting point of 143 to 145 °C.
With `Nc1cc(F)ccc1C(=O)Nc1ccccc1` the melting point was 120 to 122 °C.
With `CCOC(=O)c1c(Cl)nc2cc(F)c(F)cc2c1CCl` the melting point was 264 °C.
`CCOC(=O)CC12CC1CCCC2=O` (stereo not given) showed a melting point of 154 to 156 °C.
In the case of `CCn1cc(C(=O)O)c(=O)c2cc(C)sc21`, the melting point was 229 to 230 °C.
In the case of `CC1(C)Cn2c(nc3c(N)nc4ccccc4c32)CN1S(C)(=O)=O`, the melting point was 227 to 228 °C.
`N#Cc1c(Nc2c(F)cccc2F)cccc1Oc1ccccc1` gave a melting point of 150 to 153 °C.
In the case of `CCCCN(C(=O)C(C)C)c1nnc(C)s1`, the melting point was 54 to 57 °C.
Work on `Cc1ccnc2c(Oc3ccccc3[N+](=O)[O-])cccc12` yielded a melting point of 98 to 99 °C.
In the case of `O=S(Cc1ccccc1)c1ncc(Cl)cn1` (stereo not given), the melting point was 92 °C.
For `CCOP(=O)(/C=C/c1cn(-c2ccccc2)nc1OCc1ccc(OCc2nc(-c3cccc(C(=O)OC)c3)oc2C)c(OC)c1)OCC`, the melting point was 112 to 113 °C.
`COC(=O)C(=NO)c1nc2ccc(C)cc2oc1=O` gave a melting point of 189 to 190 °C.
Compound `C=C(C)n1c(=O)n(CCN(C)Cc2ccccc2)c2ccccc21` has a melting point of 107 to 109 °C.
With `OCCN(Cc1ccc2ccccc2c1)C1(c2nccc3sccc23)CCNCC1` the melting point was 53 to 55 °C.
`CCCOc1ccc(C(CC(=O)O)N2C(=O)c3ccccc3C2=O)cc1` (stereo not given) showed a melting point of 142 to 144 °C.
In the case of `Cc1ccc(C)c(NC(=O)CN2C(=O)C3(COc4cc5c(cc43)CCO5)c3ccccc32)c1` (stereo not given), the melting point was 250 to 252 °C.
`O=C(O)c1cc(=O)c2ccc(OCCCCCOc3ccc4c(=O)ccoc4c3)cc2o1` gave a melting point of 113 to 116 °C.
`O=c1[nH]c2cc(Cl)ccc2n1C1CCN(CCCNc2ccccc2[N+](=O)[O-])CC1` gave a melting point of 220 °C.
Work on `CCCCOC(=O)c1cn2ccnc2s1` yielded a melting point of 84 to 86 °C.
Work on `CNC(=C[N+](=O)[O-])NCc1cccnc1` yielded a melting point of 159 to 160 °C.
With `NS(=O)(=O)c1cc2[nH]c(CO)nc2cc1Cl` the melting point was 247 to 250 °C.
`Cc1cc(OCCN(C)C)ccc1NC(=O)c1ccc(N2CCNCC2)cc1` gave a melting point of 139 to 141 °C.
For `OCCC1CCc2cc(OCc3ccc4ccccc4c3)ccc2C1` (stereo not given), the melting point was 90 to 91 °C.
Compound `O=C(N[C@H]1CCN(CCCOc2ccc(F)cc2)C[C@H]1O)c1ccccc1` (relative stereo) has a melting point of 130 °C.
Compound `CCOC(=O)C1SC(c2ccc3ccccc3c2)=NN1C(=O)CCSC(C)=O` (stereo not given) has a melting point of 107 to 108 °C.
`O=C(N1CCc2ccc(S(=O)(=O)Cl)cc2C1)C(F)(F)F` showed a melting point of 104 to 105 °C.
In the case of `COCc1cc(Cl)cc(C(=O)c2nc(OC)cc(OC)n2)c1[N+](=O)[O-]`, the melting point was 130 to 131 °C.
Compound `O=c1c2ccc(Cl)cc2[nH]c2c(O)nn(-c3ccc(Cl)cc3Cl)c(=O)c12` has a melting point of 360 to 361 °C.
`Cc1c(O)cc2c(c1C)N(C=O)C(C)(C)C2` showed a melting point of 202 to 204 °C.
Work on `COC(=O)[C@@H](OS(=O)(=O)c1ccc(C)cc1)[C@H](O)C1CC1` yielded a melting point of 75 to 78 °C.
Compound `O=C(Cn1nc(Cl)nc1Cl)N1CCC(c2nc(C3=NOC(c4c(F)cccc4F)C3)cs2)CC1` (stereo not given) has a melting point of 147 to 150 °C.
With `CO/C=C(/C(=O)OC)c1ccccc1C=CCO` the melting point was 78 to 80 °C.
In the case of `N#CC=Cc1cccc(Cl)c1F`, the melting point was 90 to 92 °C.
Work on `O=C1CCCC2=C1C(c1cccc([N+](=O)[O-])c1)C1=C(CCCC1)N2` (stereo not given) yielded a melting point of 218 to 221 °C.
With `COc1ccc(C(=O)Nc2cc(NC(=O)c3cccc(NS(C)(=O)=O)c3)ccc2C)cc1OC` the melting point was > 300 °C.
`Cc1nnc(NC(C)C)s1` showed a melting point of 145 °C.
For `CCOC(=O)C(C)(C)Oc1ccc(-c2ccc(CCNC(=O)c3cccc(C)c3)cc2)cc1`, the melting point was < 20 °C.
In the case of `COc1ccc2cc(-c3cccnc3)ccc2n1`, the melting point was 89 to 91 °C.
For `CS(=O)(=O)c1ccc(-c2ccccc2C=O)cc1`, the melting point was 115 to 116 °C.
For `O=C(NC12CC3CC(CC1C3)C2)c1ccncc1C(c1ccc(O)cc1)c1ccc(O)cc1`, the melting point was 218 to 220 °C.
`CC(C)(C)OC(=O)N1CCC2(CC1)CC(c1ccc(C#N)cc1)=NO2` showed a melting point of 169 to 171 °C.
In the case of `COC(=O)CCCc1cc2cc(Cl)ccc2n1S(=O)(=O)c1ccc2sc(C)nc2c1`, the melting point was 136 to 138 °C.
For `O=C1CC(Br)C(=O)N1c1ccc(F)cc1` (stereo not given), the melting point was 154 °C.
In the case of `Cc1cc(SCc2ccc(OCc3ccc(Cl)cc3Cl)cc2)ccc1OCC(=O)O`, the melting point was 101 to 103 °C.
`CCCc1c(OCCOc2ccc(N)cc2)ccc(C(C)=O)c1O` gave a melting point of 73 to 74 °C.
Compound `CCN1CCN(c2c(F)c(N)c3c(=O)c(C(=O)O)cn(C4CC4)c3c2F)CC1` has a melting point of 236 to 237 °C.
`O=[N+]([O-])c1ccc(N2CCN(Cc3ccccc3)CC2)cc1CS(=O)(=O)c1ccccc1` showed a melting point of 145 to 146 °C.
Work on `CC(=C1SCCS1)c1ccc(F)cc1` yielded a melting point of 27 to 31 °C.
With `CCOC(Nc1ccc(C(=O)O)cc1)C(=O)c1ccc(Oc2ccc(Cl)c3ccccc23)cc1` (stereo not given) the melting point was 155 to 165 °C.
In the case of `CCOC(=O)c1cc(NC(=O)C(Cc2cscn2)NC(=O)OC(C)(C)C)c[nH]1` (stereo not given), the melting point was 217 to 220 °C.
With `O=C(C=Cc1ccccc1)N1CCc2c([nH]c3ccccc23)C1c1ccccc1` (stereo not given) the melting point was 130 to 132 °C.
`COCOCc1nc(N)c2nccnc2n1` showed a melting point of 129 to 131 °C.
With `CCOC(=O)C=Cc1ccc(CCNS(=O)(=O)CCc2ccc(Cl)cc2)cc1` the melting point was 91 to 92 °C.
In the case of `Cn1ncc2c(C(F)F)cc(-c3ccc(N)c(C#N)c3)nc21`, the melting point was 251 °C.

From a melting point compilation (Tetko et al.; mined from patent text by program, amines drawn as free bases though some values may be those of a salt)
